The text below walks through data of US20190152992A1, “BENZODIOXANE DERIVATIVES AND THEIR PHARMACEUTICAL USE” (Orion Corporation, priority 2016, published 2019).

Counter-ions that a name gives are not always drawn. Like-named read-outs stand apart in the source and are kept apart here.

For one test, the target named is T1, human alpha2C receptors (Homo sapiens, UniProt P18825).
T1 sequence (P18825 1-462): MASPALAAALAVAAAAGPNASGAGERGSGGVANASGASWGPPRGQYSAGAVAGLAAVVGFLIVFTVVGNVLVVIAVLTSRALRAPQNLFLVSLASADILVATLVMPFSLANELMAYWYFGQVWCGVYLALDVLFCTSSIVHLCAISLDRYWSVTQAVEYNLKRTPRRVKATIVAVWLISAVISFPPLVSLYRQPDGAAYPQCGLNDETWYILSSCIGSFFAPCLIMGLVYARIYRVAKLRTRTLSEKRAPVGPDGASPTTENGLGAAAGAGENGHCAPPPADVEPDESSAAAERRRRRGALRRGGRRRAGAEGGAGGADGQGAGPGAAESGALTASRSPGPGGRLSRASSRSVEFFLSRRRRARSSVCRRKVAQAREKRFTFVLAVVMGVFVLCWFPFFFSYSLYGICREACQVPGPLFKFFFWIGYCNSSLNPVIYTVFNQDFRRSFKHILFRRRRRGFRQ
Kind of test: Determination of alpha2C antagonistic activity in vitro (FLIPR calcium assay). The conditions noted are these: for Kb: Kb calculated from IC50 with the Cheng-Prusoff equation, adrenaline as agonist, CHO cells, human alpha2C.

Test [1] addresses T2, human alpha2A receptors (Homo sapiens, UniProt P08913).
T2 sequence (P08913 1-465): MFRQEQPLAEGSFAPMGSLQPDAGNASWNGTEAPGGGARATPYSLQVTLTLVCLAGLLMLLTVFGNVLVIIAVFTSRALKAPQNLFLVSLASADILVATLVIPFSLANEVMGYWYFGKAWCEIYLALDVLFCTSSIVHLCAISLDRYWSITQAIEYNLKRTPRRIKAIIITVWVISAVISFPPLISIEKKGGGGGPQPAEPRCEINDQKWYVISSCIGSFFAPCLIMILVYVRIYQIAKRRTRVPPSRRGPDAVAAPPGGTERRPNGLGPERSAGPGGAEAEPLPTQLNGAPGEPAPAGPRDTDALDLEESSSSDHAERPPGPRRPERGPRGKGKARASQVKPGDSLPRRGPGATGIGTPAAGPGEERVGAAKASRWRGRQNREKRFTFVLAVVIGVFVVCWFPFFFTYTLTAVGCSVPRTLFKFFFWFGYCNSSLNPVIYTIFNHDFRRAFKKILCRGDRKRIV
The conditions noted are these: for IC50: read-out: Alpha 2A Adrenaline IC50, antagonism, cells stimulated with adrenaline, CHO cells stably transfected with human alpha2A, cotransfected with Gα16, intracellular calcium; for Kb: read-out: Alpha 2A Adrenaline Kb, Kb calculated from IC50 with the Cheng-Prusoff equation, adrenaline as agonist, CHO cells, human alpha2A.
Description: (§1) Experiment 1: Determination of alpha2A and alpha2C Antagonistic Activity In Vitro
(§2) The growth medium was removed and the cells were incubated with the test compounds and the FLIPR Calcium 6 Assay reagent (Molecular Devices, CA, USA) for 2 h at 37° C. in dark. The test compounds (concentrations in cells 100 pM-10 μM) were dissolved in Probenecid-Ringer consisting of 150 mM NaCl, 3 mM KCl, 1.2 mM MgCl2, 1 mM CaCl2, 5 mM glucose, 20 mM HEPES and 2.5 mM probenecid (pH 7.4 adjusted with 1.0 M NaOH). […] All experiments were performed at 37° C. For agonism measurements the test compounds dissolved in Probenecid-Ringer were applied by FLIPR Tetra at 15 s time point. In order to determine antagonism, the cells were stimulated either with 100 nM adrenaline or noradrenaline and the test compounds were added to the cells 2 h before the experiment with the FLIPR Calcium 6 Assay reagent. […] Typically, there were four replicates at each concentration and six different dose levels. […] The minimum fluorescence value subtracted from the maximum value for each well was used in the calculations. ScreenWorks version 4.0 software was used for analyzing the results. Fitting of the antagonist dose-response results was performed with the free Hill equation and the IC50 values were fitted with IDBS XE software using model 200: y=(A+(B/(1+((x/C)̂D)))), where A is the curve maximum, B the curve minimum and C equals the EC50 value. D is slope factor (Hill). Kb was calculated with the Cheng-Prusoff equation Kb=A/((B/C)+1), where A is the IC50 of antagonist, B the concentration of agonist and C the EC50 of the agonist.

Test [2] concerns the target T2, human alpha2A receptors. In words: cell-based.
Description: as §1, §2
[3] abbreviates: read-out: Alpha 2C Adrenaline IC50, antagonism, cells stimulated with adrenaline, CHO cells stably transfected with human alpha2C, cotransfected with Gα16, intracellular calcium.
Where [4] appears, read: read-out: Alpha 2C Adrenaline Kb.

Description for human alpha2C receptors: as §1, §2

For orientation: IC50 means the concentration needed to halve the response being measured. On to “(R)-1-((S)-1-(((S)-2,3-Dihydrobenzo[b][1,4]dioxin-2-yl)methyl)piperidin-3-yl)-3-methyl-3-phenylpyrrolidine-2,5-dione and (S)-1-((S)-1-(((S)-2,3-dihydrobenzo[b][1,4]dioxin-2-yl)methyl)piperidin-3-yl)-3-methyl-3-phenylpyrrolidine-2,5-dione [example 36]”, for which the figures for the 50% inhibitory concentration (IC50) at human alpha2C receptors (setting [3]) and on human alpha2A receptors [1] were 0.908 nM and 1.56 µM, respectively. The Kb at human alpha2C receptors (setting [4]) was 0.091 nM; on human alpha2A receptors [1], 70 nM.
Turning to `CC1CCN([C@H]2CCCN(C[C@H]3COc4ccccc4O3)C2)C1=O` (single isomer, unassigned; diastereomer 2) [example 99], the IC50 was 0.15 nM on human alpha2C receptors and greater than 10 µM at human alpha2A receptors [1]. The Kb at human alpha2C receptors (Alpha 2C Adrenaline Kb) is 0.02 nM; at human alpha2A receptors [1], greater than 449 nM.
`O=C1NCCCN1[C@H]1CCCN(C[C@H]2COc3ccccc3O2)C1` [compound 53, 1-((S)-1-(((S)-2,3-Dihydrobenzo[b][1,4]dioxin-2-yl)methyl)piperidin-3-yl)tetrahydropyrimidin-2(1H)-one]: the IC50 was 1.04 nM at human alpha2C receptors (setting [3]) and greater than 10 µM at human alpha2A receptors [1]. In addition, the Kb was 0.105 nM on human alpha2C receptors (setting [4]) and greater than 449 nM on human alpha2A receptors [1].
Turning to `O=C1NC2(CC2)C(=O)N1[C@H]1CCCN(C[C@H]2COc3ccccc3O2)C1` [example 122, 6-((S)-1-(((S)-2,3-Dihydrobenzo[b][1,4]dioxin-2-yl)methyl)-piperidin-3-yl)-4,6-diazaspiro[2.4]heptane-5,7-dione], the IC50 against human alpha2A receptors [2] was 1.38 µM; on human alpha2C receptors, 0.11 nM. Besides, the Kb on human alpha2A receptors [2] was 62 nM; on human alpha2C receptors (Alpha 2C Adrenaline Kb) it was 0.01 nM.
Turning to `O=C1OC(c2ccc(F)cc2)CN1[C@H]1CCCN(C[C@H]2COc3ccccc3O2)C1` (stereo partly drawn) [example 21, 3-((S)-1-(((S)-2,3-Dihydrobenzo[b][1,4]dioxin-2-yl)methyl)piperidin-3-yl)-5-(4-fluorophenyl)oxazolidin-2-one], the IC50 was found to be 1.4 µM against human alpha2A receptors [2] and 1.9 nM on human alpha2C receptors. The Kb was 63 nM on human alpha2A receptors [2] and 0.191 nM on human alpha2C receptors (Alpha 2C Adrenaline Kb).
For the molecule `Cc1nc2ncccc2n1[C@H]1CCCN(C[C@H]2COc3ccccc3O2)C1` [example 157, 1-((S)-1-(((S)-2,3-Dihydrobenzo[b][1,4]dioxin-2-yl)methyl)-piperidin-3-yl)-2-methyl-1H-imidazo[4,5-b]pyridine], the IC50 at human alpha2A receptors [2] was greater than 10 µM; on human alpha2C receptors it was 1.63 nM. For the same molecule, the results for the Kb at human alpha2A receptors [2] and at human alpha2C receptors (Alpha 2C Adrenaline Kb) were greater than 449 nM and 0.164 nM, respectively.
Taken in the same sequence, the figures for `O=C1C(=O)N([C@H]2CCCN(C[C@H]3COc4ccccc4O3)C2)C(=O)N1Cc1ccccc1` [example 131, 1-Benzyl-3-((S)-1-(((S)-2,3-dihydrobenzo[b][1,4]dioxin-2-yl)methyl)piperidin-3-yl)imidazolidine-2,4,5-trione] were 5.7 µM, 1.64 nM, 256 nM and 0.165 nM.
In the same order, the values of `Cc1nc2ccc(Cl)cc2n1[C@H]1CCCN(C[C@H]2COc3ccccc3O2)C1` [example 90, 6-Chloro-1-((S)-1-(((S)-2,3-dihydrobenzo[b][1,4]dioxin-2-yl)methyl)piperidin-3-yl)-2-methyl-1H-benzo[d]imidazole] are 11.1 µM, less than 0.1 nM, 498 nM and less than 0.01 nM.
Taken in the same sequence, the figures for `CC1CCC(=O)N1[C@H]1CCCN(C[C@H]2COc3ccccc3O2)C1` (stereo partly drawn) [example 30, 1-((S)-1-(((S)-2,3-Dihydrobenzo[b][1,4]dioxin-2-yl)methyl)piperidin-3-yl)-5-methylpyrrolidin-2-one] were greater than 1 µM, 1.11 nM, greater than 45 nM and 0.11 nM.
On to `COc1ccc2c(c1OC)C(=O)N([C@H]1CCCN(C[C@H]3COc4ccccc4O3)C1)C2=O` [example 66, 2-((S)-1-(((S)-2,3-Dihydrobenzo[b][1,4]dioxin-2-yl)methyl)piperidin-3-yl)-4,5-dimethoxyisoindoline-1,3-dione hydrochloride], for which the values for the half-maximal inhibitory concentration (IC50) on human alpha2A receptors [2] and on human alpha2C receptors were greater than 10 µM and less than 0.01 nM, respectively. For the same molecule, the Kb was greater than 449 nM on human alpha2A receptors [2] and less than 0.001 nM at human alpha2C receptors (Alpha 2C Adrenaline Kb).
In the same order, the values of `C[C@@H]1NC(=O)N([C@H]2CCCN(C[C@H]3COc4ccccc4O3)C2)C1=O` [example 113, (S)-3-((S)-1-(((S)-2,3-Dihydrobenzo[b][1,4]dioxin-2-yl)methyl)-piperidin-3-yl)-5-methylimidazolidine-2,4-dione] are greater than 10 µM, 0.175 nM, greater than 449 nM and 0.015 nM.
In the same order, the values of `O=C1N(c2ccccc2)CCN1[C@H]1CCCN(C[C@H]2COc3ccccc3O2)C1` [example 48, 1-((S)-1-(((S)-2,3-Dihydrobenzo[b][1,4]dioxin-2-yl)methyl)piperidin-3-yl)-3-phenylimidazolidin-2-one] are greater than 10 µM, 29.9 nM, greater than 449 nM and 3.01 nM.
As to `Cn1ncc2c1C(=O)N([C@H]1CCCN(C[C@H]3COc4ccccc4O3)C1)C2` [example 24, 5-((S)-1-(((S)-2,3-Dihydrobenzo[b][1,4]dioxin-2-yl)methyl)piperidin-3-yl)-1-methyl-4,5-dihydropyrrolo[3,4-c]pyrazol-6(1H)-one], the figures for the IC50 against human alpha2A receptors [2] and on human alpha2C receptors were greater than 10 µM and 89.7 nM, respectively. For the same molecule, the Kb at human alpha2A receptors [2] was greater than 449 nM; at human alpha2C receptors (Alpha 2C Adrenaline Kb), 9.03 nM.
In the case of `CC1(c2ccccc2)CC(=O)N([C@H]2CCCN(C[C@H]3COc4ccccc4O3)C2)C1=O` (stereo partly drawn) [example 35, 1-((S)-1-(((S)-2,3-Dihydrobenzo[b][1,4]dioxin-2-yl)methyl)piperidin-3-yl)-3-methyl-3-phenylpyrrolidine-2,5-dione], the IC50 against human alpha2A receptors [2] was 0.193 µM; at human alpha2C receptors, less than 0.01 nM. This molecule displayed a Kb at human alpha2A receptors [2] of 9 nM.
Regarding `CC(C)(C)C1CN([C@H]2CCCN(C[C@H]3COc4ccccc4O3)C2)C(=O)O1` (stereo partly drawn) [example 18, 5-tert-Butyl-3-((S)-1-(((S)-2,3-dihydrobenzo[b][1,4]dioxin-2-yl)methyl)piperidin-3-yl)oxazolidin-2-one], the IC50 on human alpha2A receptors [2] came to 8.51 µM; on human alpha2C receptors, 0.235 nM. For the same molecule, the Kb at human alpha2A receptors [2] was 382 nM; at human alpha2C receptors (Alpha 2C Adrenaline Kb), 0.024 nM.
Turning to `Cn1ncc2c1CN([C@H]1CCCN(C[C@H]3COc4ccccc4O3)C1)C2=O` [example 80, 5-((S)-1-(((S)-2,3-Dihydrobenzo[b][1,4]dioxin-2-yl)methyl)piperidin-3-yl)-1-methyl-5,6-dihydropyrrolo[3,4-c]pyrazol-4(1H)-one], the concentration for half-maximal inhibition (IC50) at human alpha2A receptors [2] is greater than 10 µM; at human alpha2C receptors, greater than 10000 nM. The Kb at human alpha2A receptors [2] is greater than 449 nM; at human alpha2C receptors (Alpha 2C Adrenaline Kb) it was greater than 1010 nM.
In the same order, the values of `CC1=CC(=O)N([C@H]2CCCN(C[C@H]3COc4ccccc4O3)C2)C1` [example 40, 1-((S)-1-(((S)-2,3-Dihydrobenzo[b][1,4]dioxin-2-yl)methyl)piperidin-3-yl)-4-methyl-1H-pyrrol-2(5H)-one] are greater than 10 µM, 2.32 nM, greater than 449 nM and 0.232 nM.
In the same order, the values of `COc1ccccc1C1=CC(=O)N([C@H]2CCCN(C[C@H]3COc4ccccc4O3)C2)C1` [example 43, 1-((S)-1-(((S)-2,3-Dihydrobenzo[b][1,4]dioxin-2-yl)methyl)piperidin-3-yl)-4-(2-methoxyphenyl)-1H-pyrrol-2(5H)-one formate] are greater than 10 µM, less than 0.01 nM, greater than 449 nM and less than 0.001 nM.
